# Experimental data published in PubChem BioAssay (NCI).
# Several values for one entry are separate records, joined by “and”; a condition that tells them apart may be missing. Identical values can stand only once.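 Cells were grown in 96-well plates and exposed to each compound for 48 hours at five concentrations; endpoints were interpolated linearly between bracketing concentrations, or set to the highest concentration if not reached. GI50: concentration for 50% inhibition of growth. TGI: total growth inhibition.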
# Tests used:
# Experiment in all cases: DTP human tumour cell line panel, 48 h
# A549 NSCLC = test system: A549 NSCLC
# CAKI-1 renal = test system: CAKI-1 renal
# CCRF-CEM leukemia = test system: CCRF-CEM leukemia
# HCC-2998 colon = test system: HCC-2998 colon
# HOP-62 NSCLC = test system: HOP-62 NSCLC
# SF-295 CNS = test system: SF-295 CNS
# SK-OV-3 ovarian = test system: SK-OV-3 ovarian
# TK-10 renal = test system: TK-10 renal
# KM20L2 colon = test system: KM20L2 colon
# M19-MEL melanoma = test system: M19-MEL melanoma
Structure (SMILES),GI50 (A549 NSCLC),TGI (A549 NSCLC),GI50 (CAKI-1 renal),TGI (CAKI-1 renal),GI50 (CCRF-CEM leukemia),TGI (CCRF-CEM leukemia),GI50 (HCC-2998 colon),TGI (HCC-2998 colon),GI50 (HOP-62 NSCLC),TGI (HOP-62 NSCLC),GI50 (SF-295 CNS),TGI (SF-295 CNS),GI50 (SK-OV-3 ovarian),TGI (SK-OV-3 ovarian),GI50 (TK-10 renal),TGI (TK-10 renal),GI50 (KM20L2 colon) [µM],TGI (KM20L2 colon) [µM],TGI (M19-MEL melanoma) [µM]
O=C(O)[C@@H](Cc1ccccc1)NS(=O)(=O)c1ccc(-c2ccccc2)cc1,> 100 µM,> 100 µM,> 100 µM,> 100 µM,> 100 µM,> 100 µM,> 100 µM,> 100 µM,> 100 µM,> 100 µM,> 100 µM,> 100 µM,> 100 µM,> 100 µM,> 100 µM,> 100 µM,,,
CCCCCCCC(=O)[O-].N.N.N.N.N.[Co+3].[O-][Cl+3]([O-])([O-])[O-],> 100 µM,> 100 µM,,,> 100 µM,> 100 µM,> 100 µM,> 100 µM,> 100 µM,> 100 µM,> 100 µM,> 100 µM,> 100 µM,> 100 µM,> 100 µM,> 100 µM,> 100,> 100,
NS(=O)(=O)c1ccc(NC(=O)Nc2cccc3ccccc23)cc1,,> 100 µM,,> 100 µM,,> 100 µM,,> 100 µM,,> 100 µM,,> 100 µM,,> 100 µM,,> 100 µM,,,
CC1=NN(c2ccccc2)C(=O)C1N=Nc1ccc(Br)cc1C (stereo unspecified),,> 100 µM,,> 100 µM,,> 100 µM,,> 100 µM,,> 100 µM,,> 100 µM,,> 100 µM,,> 100 µM,,> 100,> 100
OCC1OC(NO)C(O)C(O)C1O (stereo unspecified),,> 100 µM,,> 100 µM,,> 100 µM,,> 100 µM,,> 100 µM,,> 100 µM,,,,> 100 µM,,> 100,> 100
C/C(COc1ccccc1)=N\NC(N)=S,,> 100 µM,,> 100 µM,,> 100 µM,,> 100 µM,,> 100 µM,,> 100 µM,,> 100 µM,,> 100 µM,,> 100,> 100
C=C1CC2(CC(c3ccccc3C)OC(c3ccccc3C)C2)OC1=O (stereo unspecified),,19.4 µM,,4.26 µM,,5.75 µM,,5.82 µM,,26.8 µM,,29.4 µM,,24.2 µM,,4.14 µM,,,
O=S1c2ccccc2N=C(c2cccs2)CC1c1ccccc1O (stereo unspecified),,> 100 µM,,> 100 µM,,> 100 µM,,> 100 µM,,> 100 µM,,> 100 µM,,> 100 µM,,> 100 µM,,> 100,> 100
Cc1ccc(O)c(C(=O)/C=C/c2ccccc2)c1,,> 100 µM,,> 100 µM,,> 100 µM,,> 100 µM,,> 100 µM,,> 100 µM,,> 100 µM,,> 100 µM,,,
N/C(=N/O)NOCCC(N)C(=O)O (stereo unspecified),> 100 µM,> 100 µM,> 100 µM,> 100 µM,> 100 µM,> 100 µM,> 100 µM,> 100 µM,> 100 µM,> 100 µM,> 100 µM,> 100 µM,> 100 µM,> 100 µM,> 100 µM,> 100 µM,,,
COc1cc(N2CCN(C(C)C)CC2)ccc1Nc1nc(Nc2ccc(F)cc2C(N)=O)c2cc[nH]c2n1,0.121 µM,4.17 µM,0.911 µM,5.29 µM,0.277 µM,21.3 µM,0.558 µM,5.63 µM,0.668 µM,5.26 µM,3.99 µM,10.3 µM,0.317 µM,3.03 µM,0.17 µM,4.68 µM,,,
O=C(C#Cc1ccccc1)N1CCCCC1,,> 100 µM,,> 100 µM,,> 100 µM,,> 100 µM,,> 100 µM,,> 100 µM,,> 100 µM,,> 100 µM,,,
CNC(=O)c1cc(Oc2ccc(NC(=O)Nc3ccc(Cl)c(C(F)(F)F)c3)cc2)ccn1,3.03 µM and 2.57 µM and 2.92 µM,> 10 µM and 11.5 µM and 13.6 µM,3.21 µM and 2.01 µM and 2.91 µM,> 10 µM and 4.3 µM and 8.81 µM,3.18 µM and 4.35 µM and 2.27 µM,> 10 µM and > 100 µM and 16.7 µM,3.4 µM and 1.58 µM and 2.81 µM,> 10 µM and 3.11 µM and 8.92 µM,2.78 µM and 2.59 µM and 2.01 µM,> 10 µM and 7.97 µM and 4.81 µM,2.34 µM and 1.83 µM and 1.69 µM,> 10 µM and 5.33 µM and 4.56 µM,3.14 µM and 3.28 µM and 2.5 µM,9.87 µM and 12.5 µM and 7.31 µM,4.41 µM and 3.83 µM and 4.48 µM,> 10 µM and 9.96 µM and 20.2 µM,,,
Oc1ccccc1-c1cnnc(-c2ccccc2O)c1,,,,65.2 µM,,36.5 µM,,,,,,,,72.8 µM,,> 100 µM,,84.3,61.8
Cn1cc(-c2[nH]c3cc(NC(=O)[C@H](N)C4CCCCC4)cc4c3c2C=NNC4=O)cn1,3.63 µM and 3.85 µM,16.9 µM and > 10 µM,1.8 µM and 0.705 µM,10.5 µM and > 7.91 µM,0.0345 µM and 0.056 µM,0.507 µM and > 3.89 µM,0.472 µM and 0.287 µM,19.9 µM and > 10 µM,0.401 µM and 0.343 µM,12.3 µM and > 10 µM,0.273 µM and 0.318 µM,,0.302 µM and 0.309 µM,11.4 µM and > 10 µM,0.675 µM and 0.467 µM,12.7 µM and > 10 µM,,,
c1ccc2c(c1)CCCc1nnc3nc4ccccc4n3c1-2,3.66 µM,> 100 µM,5.32 µM,> 100 µM,3.68 µM,> 100 µM,6.45 µM,24.1 µM,4.73 µM,> 100 µM,9.01 µM,> 100 µM,7.78 µM,> 100 µM,6.8 µM,> 100 µM,,,
Cc1ccccc1N=C(c1ccccc1)C1C(=O)c2ccccc2C1=O,12.3 µM,> 100 µM,21 µM,> 100 µM,12.8 µM,62.3 µM,19.2 µM,54.2 µM,18.2 µM,63.9 µM,13.8 µM,36.5 µM,3.68 µM,77.2 µM,8.43 µM,38.5 µM,,,
O=S1(=O)CC#CC[C@@H](CO)[C@@H](CO)CC#CC1,,> 100 µM,,,,98.1 µM,,> 100 µM,,> 100 µM,,> 100 µM,,> 100 µM,,> 100 µM,,> 100,> 100
COc1ccc2c(c1)C(=O)CC(C(N)=O)C2 (stereo unspecified),,> 100 µM,,> 100 µM,,> 100 µM,,> 100 µM,,> 100 µM,,> 100 µM,,> 100 µM,,> 100 µM,,,
